Square brackets hold non-standard residues; d marks the D form. Nle = CCCC[C@H](N)C(=O)O
Legend:
[1] = test system: Primary human fibroblasts (NHDF); assay: In vitro cell adhesion on the fibre comprising RGD motif; type: cell-based; settings: fibre of native HYA with bonded peptide; DiI stained NHDF, 10^5 cells; fluorescent microscope; monitored for 7 days of cultivation (FIG. 6)
Method: The fibre of native HYA comprising RGD motif, prepared according to the procedure described in Example 14, and control fibres were cut into 1 cm pieces and transferred onto a non-adhesive panel with 24 wells. Primary human fibroblasts (NHDF) were pre-marked with the fluorescent dye DiI (Exmax/Emmax 549/565) and inoculated, in the amount of 10^5 cells, into the wells filled with the tested samples. Then the panel was shaken by a shaker (5 hrs/160 rpm) to keep the cells in suspension, under cultivation conditions (37° C., 5% CO2). After 24 h of cultivation the fibres were transferred into a well with fresh cultivation medium. Then the cells were observed and detected by fluorescent microscope Nikon Ti-Eclipse with the use of TRITC filter (Exmax/Emmax, 549/565). The fibroblasts proliferation was monitored for 7 days of cultivation.

[2] = test system: injured skin; settings: rabbits, alginate bandage containing the peptide; in comparison with Ser-Ile-Lys-Val-Ala-Val and Val-Pro-Val-Ala-Pro-Gly anchored on alginate bandage; cited from earlier work

Substance | adhesion and proliferation of human dermal fibroblasts on the fibre [1] | epithelization [2] | volume of regenerated tissue [2]
H-Ahx-Ahx-Arg-Gly-Asp-Nle-O-HYA [H-Ahx-Ahx-Arg-Gly-Asp-Nle-OH] | did not support the cell adhesion | – | –
H-Arg-Gly-Asp-Gly-Gly-Gly-Nle-O-HYA (H-RGDGGG[Nle]-{O‑hyaluronan}) [H-Arg-Gly-Asp-Gly-Gly-Gly-Nle-OH, RGD peptide linked to native hyaluronan fibre via triglycine linker] | did not support the cell adhesion | – | –
H-Gly-Gly-Gly-Arg-Gly-Asp-Nle-O-HYA (H-GGGRGD[Nle]-{O‑hyaluronan}) [H-Gly-Gly-Gly-Arg-Gly-Asp-Nle-OH, peptide with triglycine and RGD anchored to native hyaluronan fibre] | did not support the cell adhesion | – | –
Ser-Ile-Arg-Val-X-Val-X-Pro-Gly (where X=Ala or Gly) | – | significantly higher | larger
